We go through twelve compounds from patent US20260109693A1, “BUTENOLIDE COMPOUNDS CONTAINING THIAZOLIDINONE STRUCTURE AS WELL AS PREPARATION METHOD THEREFOR AND USE THEREOF” (priority 2023, published 2026).

In brackets after ≈: the same amount, converted by molar mass.

Assay [1] deals with cucumber downy mildew. Briefly: In vivo protective activity, live pot cultivation method. The note with it: 400 mg/L, sprayed 24 hours before inoculation, potted plants. On the procedure: (§1) The determination method was as follows: the live pot cultivation determination method was used, that is, the compound sample to be tested was dissolved in a small amount of solvent (the type of solvent was such as acetone, methanol, and DMF, and was selected according to its dissolving ability for the sample, with a volume ratio of solvent amount to spray amount equal to or less than 0.05), diluted with water containing 0.1% Tween 80, and prepared into a test solution with a required concentration. With a crop sprayer, the test solution was sprayed on a pathogen host plant (the host plant was a standard potted seedling cultivated in a greenhouse), and inoculation with the pathogen was performed after 24 hours. Based on the characteristics of the pathogen, plants that require temperature control and moisturizing cultivation were inoculated and placed in an artificial climate chamber for cultivation, and transferred to a greenhouse for cultivation after the pathogen infection was completed. […] The disease prevention efficacy of the compound was evaluated after the disease had fully developed (usually one week).
(§2) At a concentration of 400 mg/L, the in vivo protective activity determination results of some compounds are as follows: […]

Assay [2] relates to wheat powdery mildew. The description is as above. The note with it: 400 mg/L, sprayed 24 hours before inoculation, potted plants. The procedure:
as §1, §2

Assay [3] has as its system corn rust disease. The description is as above. To be noted: 400 mg/L, sprayed 24 hours before inoculation, potted plants. On the procedure:
as §1, §2

In assay [4] the test system is Pathogenic fungi of pepper phytophthora disease. Briefly: In vitro fungicidal activity, mycelial growth rate method. Format: cell-based. The note with it: 50 mg/L, PDA plate; for inhibition at 50 µg/mL: Phytophthora.
For assay [5], the system named is Rice bakanae pathogenic fungi. Briefly: Precise toxicity testing, five concentration gradients of toxic PDA plates. Type of assay: cell-based.
Assay [6] deals with Pathogenic fungi of rice sheath blight. Briefly: In vitro fungicidal activity, mycelial growth rate method. Format: cell-based. To be noted: 50 mg/L, PDA plate.
Assay [7] has as its system Pathogenic fungi of rape sclerotinia. The description is as above. To be noted: 50 mg/L, PDA plate; for inhibition at 50 µg/mL: Sclerotinia. Type of assay: cell-based.
Assay [8] deals with Pathogenic fungi of tomato gray mold. The assay is described as above. The note with it: 50 mg/L, PDA plate. Format: cell-based.
The test system of assay [9] is Wheat scab pathogenic fungi. Type of assay: cell-based.
Assay [10] deals with Pathogenic fungi of wheat scab. Briefly: whole plant or invertebrate. Format: cell-based. The note with it: for inhibition rate, Pathogenic fungi of wheat scab: 50 mg/L, PDA plate, mycelial growth; for inhibition at 50 µg/mL: read-out: inhibition rate, Pathogenic fungi of wheat scab.
Assay [11] has as its system Pathogenic fungi of rice bakanae disease. Briefly: In vitro fungicidal activity, mycelial growth rate method. Type of assay: cell-based. To be noted: 50 mg/L, PDA plate.
The subject of assay [12] is Rape sclerotinia pathogenic fungi. Briefly: Precise toxicity testing, five concentration gradients of toxic PDA plates. Type of assay: cell-based.

As to `CCCCNC1=NC(=O)C(=C(C)C2=C(c3ccc(Br)cc3)C3(CCCCC3)OC2=O)S1` [Compound I-7-5], the “efficacy against cucumber downy mildew” value in [1] amounted to 95%.
Turning to `CC(=C1SC(Nc2ccc(F)cc2-c2ccc(Cl)c(Cl)c2)=NC1=O)C1=C(c2ccc(C(F)(F)F)cc2)C2(CCCCC2)OC1=O` [Compound I-12-15], the “efficacy against cucumber downy mildew” value in assay [1] was 93%.
Regarding `CC(=C1SC(NCC(C)C)=NC1=O)C1=C(c2cccc(Cl)c2)C2(CCCCC2)OC1=O` [Compound I-14-6], the “efficacy against wheat powdery mildew” value in [2] is on record as 85%.
Regarding `CSc1ccc(C2=C(C(C)=C3SC(Nc4ccccc4-c4ccc(Cl)cc4)=NC3=O)C(=O)OC23CCCCC3)cc1` [Compound I-10-17], the “efficacy against corn rust disease” value in [3] is reported as 89%.
As to `CCOC(=O)C(C#N)=C(N)c1ccccc1` [Phenamacril], in assay [4], the “inhibition rate, Pathogenic fungi of pepper phytophthora disease” value is recorded as 8.1 ± 2.1%. In [5], the 50% effective concentration (EC50) is 0.071 µg/mL (≈ 0.328 µM) and the EC90 was found to be 0.54 µg/mL (≈ 2.5 µM). In assay [6], the “inhibition rate, Pathogenic fungi of rice sheath blight” value is recorded as 11.5 ± 1.4%. Moreover, the “inhibition rate, Pathogenic fungi of rape sclerotinia” value (from here on “inhibition rate … of rape sclerotinia”) in [7] came out at 23.0 ± 1.3%. In addition, the “inhibition rate, Pathogenic fungi of tomato gray mold” value (from here on “inhibition rate … of tomato gray mold”) in [8] turned out to be 13.1 ± 0.3%. Besides, in [9], the EC50 worked out at 0.078 µg/mL (≈ 0.361 µM) and the EC90 worked out at 5.60 µg/mL (≈ 25.9 µM). Also, in [10], the “inhibition rate, Pathogenic fungi of wheat scab” value (from here on “inhibition rate … of wheat scab”) amounted to 100.0 ± 0.0%. Besides, the “inhibition rate, Pathogenic fungi of rice bakanae disease” value in [11] worked out at 100.0 ± 0.0%.
As for “5-(4-phenyl-2-oxo-1-oxaspiro[4,5]-dec-3-en-3-ethylidene)-2-thio-4-thiazolidinone [Compound 3-4]”, the “inhibition rate, Pathogenic fungi of pepper phytophthora disease” value in assay [4] stood at 44.8 ± 0.3%. In addition, in assay [6], the “inhibition rate, Pathogenic fungi of rice sheath blight” value was found to be 31.9 ± 5.6%. In addition, the “inhibition rate … of rape sclerotinia” value in assay [7] came to 68.3 ± 4.2%. Also, the “inhibition rate … of tomato gray mold” value in [8] stood at 33.6 ± 1.7%. The “inhibition rate … of wheat scab” value in assay [10] is given as 27.7 ± 2.9%. Also, the “inhibition rate, Pathogenic fungi of rice bakanae disease” value in assay [11] is listed as 15.8 ± 2.4%.
For the compound `COC(=O)Nc1nc2ccccc2[nH]1` [Carbendazim], the inhibition at 50 µg/mL in assay [4] is 4.6 ± 1.2%; in assay [6], 100%; in [7], 72.5 ± 2.1%; in assay [8], 5.4 ± 2.4%; in assay [10], 100%; in [11], 87.5 ± 3.1%.
As for `CC(=C1SC(Nc2ccccc2)=NC1=O)C1=C(c2cccc(C(F)(F)F)c2)C2(CCCCC2)OC1=O` [Compound I-16-7], in assay [2], the “efficacy against wheat powdery mildew” value is given as 81%.
With “5-(4-methyl-2-oxo-1-oxaspiro[4,5]-dec-3-en-3-ethylidene)-2-thio-4-thiazolidinone [Compound 3-1]”, the “inhibition rate, Pathogenic fungi of pepper phytophthora disease” value in assay [4] was determined as 59.7 ± 0.4%. In addition, the EC50 in assay [5] was 0.72 µg/mL; in assay [12] (Rape sclerotinia), 2.02 µg/mL; in [9], 0.079 µg/mL. In addition, the 90% effect concentration (EC90) in assay [5] was found to be 5.04 µg/mL; in [12] (Rape sclerotinia), 9.81 µg/mL; in assay [9], 4.97 µg/mL. Besides, the “inhibition rate, Pathogenic fungi of rice sheath blight” value in assay [6] was determined as 45.2 ± 2.1%. Besides, the “inhibition rate … of rape sclerotinia” value in assay [7] was found to be 82.4 ± 1.7%. Besides, the “inhibition rate … of tomato gray mold” value in [8] was determined as 62.4 ± 2.5%. Moreover, the “inhibition rate … of wheat scab” value in assay [10] came to 100.0 ± 0.0%. The “inhibition rate, Pathogenic fungi of rice bakanae disease” value in assay [11] is listed as 100.0 ± 0.0%.
With `CCCCNC1=NC(=O)C(=C(C)C2=C(c3ccccc3)C(C)(C)OC2=O)S1` [Compound I-3-5], the “efficacy against corn rust disease” value in assay [3] was 86%.
Take `CC(=C1SC(Nc2ccc(C(F)(F)F)cc2)=NC1=O)C1=C(c2ccc(Cl)cc2)C2(CCCCC2)OC1=O` [Compound I-6-9]: in assay [2], the “efficacy against wheat powdery mildew” value worked out at 88%.
As for `Cc1nc(C(F)(F)F)c(C(=O)Nc2c(Br)cc(OC(F)(F)F)cc2Br)s1` [Thifluzamide], the inhibition at 50 µg/mL in assay [4] was 15.1 ± 2.8%; in [6], 90.1 ± 4.5%; in assay [7], 83 ± 1.2%; in assay [8], 28.2 ± 1.2%; in [10], 13.4 ± 6.3%; in assay [11], 5.8 ± 1.4%. In [12] (Sclerotinia), this compound returned an EC50 of 1.53 µg/mL (≈ 2.9 µM). Also, the EC90 in [12] (Sclerotinia) was 16.3 µg/mL (≈ 30.8 µM).

One may read the EC50 as the concentration giving half of the maximal effect. A low value points to an effect from little substance. As usually defined, the EC90 is the concentration needed for an effect of 90%. A higher EC90 goes with a need for much substance. The inhibition is how much of the control response was suppressed.
